Literature values as cited in patent publication US20170281506A1, “COMPOSITION FOR TOPICAL APPLICATION FOR PREVENTING HAIR LOSS AND STIMULATING HAIR GROWTH” (priority 2011, published 2017).

Test system: men
Settings: oral, treated constantly for two years

CC(C)(C)NC(=O)[C@H]1CC[C@H]2[C@@H]3CC[C@H]4NC(=O)C=C[C@]4(C)[C@H]3CC[C@]12C [Finasteride, finasteride]
participants who maintained or increased the number of hairs after the treatment: 83%
participants who showed no hair loss: 17%
